Results on one molecule are retold here after patent publication US20240229098A1, “BIOLUMINOGENIC ASSAY FOR DRUG-RESISTANCE BACTERIA DETECTION” (priority 2021, published 2024).

“Also recorded” adds a separate entry of the source.

Data set [1] concerns AmpC. Kind of data set: Limit of detection of recombinant β-lactamase by bioluminescence (AmpC). Conditions: 2 hours, room temperature; 3 SD of negative control. It counts as biochemical.
For data set [2], the target named is T1, TEM-1 (Escherichia coli, UniProt P62593). As to the kind of experiment: Limit of detection of recombinant β-lactamase by bioluminescence (TEM-1). The class given is biochemical. Details: made in house. The conditions noted are these: 2 hours, room temperature; 3 SD of negative control.
T1 sequence (P62593 24-286 limits assumed): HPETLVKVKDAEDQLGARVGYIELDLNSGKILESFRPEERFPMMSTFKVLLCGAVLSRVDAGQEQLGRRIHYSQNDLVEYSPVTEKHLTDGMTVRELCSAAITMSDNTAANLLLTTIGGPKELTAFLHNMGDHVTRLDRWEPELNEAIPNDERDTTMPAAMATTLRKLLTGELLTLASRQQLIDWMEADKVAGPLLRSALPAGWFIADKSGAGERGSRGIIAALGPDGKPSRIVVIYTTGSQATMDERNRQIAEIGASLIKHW
For data set [3], the target named is T2, firefly luciferase (Photinus pyralis, UniProt P08659).
T2 construct: purchased Promega E1701
T2 sequence (P08659 whole entry): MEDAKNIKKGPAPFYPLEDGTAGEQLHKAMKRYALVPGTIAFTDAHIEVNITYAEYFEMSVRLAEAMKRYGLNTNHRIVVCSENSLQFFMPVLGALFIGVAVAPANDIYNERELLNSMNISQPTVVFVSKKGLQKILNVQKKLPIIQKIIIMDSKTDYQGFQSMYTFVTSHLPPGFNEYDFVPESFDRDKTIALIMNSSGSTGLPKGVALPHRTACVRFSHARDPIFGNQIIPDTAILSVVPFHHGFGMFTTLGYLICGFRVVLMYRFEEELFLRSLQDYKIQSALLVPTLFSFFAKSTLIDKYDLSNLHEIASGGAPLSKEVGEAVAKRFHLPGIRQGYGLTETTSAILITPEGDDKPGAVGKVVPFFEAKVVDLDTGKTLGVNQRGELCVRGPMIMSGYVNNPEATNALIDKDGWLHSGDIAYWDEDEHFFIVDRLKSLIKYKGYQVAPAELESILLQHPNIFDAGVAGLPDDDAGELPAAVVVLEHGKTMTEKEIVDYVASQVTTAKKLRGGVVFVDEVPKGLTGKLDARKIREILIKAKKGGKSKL
As to the kind of experiment: Background bioluminescence and oxidation of pro-luciferin probes on repeated addition of firefly luciferase. It counts as biochemical. The method, then:
The initial bioluminescent background signal may come from residual D-luciferin present in the sample. High-performance liquid chromatography (HPLC) analysis could not detect any D-luciferin at a concentration below 0.1 μM. However, addition of firefly luciferase can efficiently detect and consume the residual free D-luciferin.
To further confirm the quenching effect of dabcyl in D-Bluco, another control, Am-Bluco, was prepared that is structurally similar to D-Bluco but with dabcyl replaced by a structure lacking the broad absorption between 400 and 530 nm (FIG. 1).

In data set [4] the target is T3, OXA-48 (Klebsiella pneumoniae, UniProt Q6XEC0).
T3 construct: made in house
T3 sequence (Q6XEC0 23-265 limits assumed): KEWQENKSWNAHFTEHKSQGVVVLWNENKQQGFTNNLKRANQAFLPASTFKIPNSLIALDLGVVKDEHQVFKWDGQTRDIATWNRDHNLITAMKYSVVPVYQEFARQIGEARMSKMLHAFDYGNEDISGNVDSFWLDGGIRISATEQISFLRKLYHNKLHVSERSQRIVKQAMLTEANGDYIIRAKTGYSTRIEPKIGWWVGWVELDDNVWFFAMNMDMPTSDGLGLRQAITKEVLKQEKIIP
Kind of data set: Limit of detection of recombinant β-lactamase by bioluminescence (OXA-48). It counts as biochemical.

The test system of data set [5] is clinically bacteria isolates in urine samples. As to the kind of experiment: RAPID BLI assay, summary for clinical bacteria isolates in urine samples. The class given is cell-based. Conditions: in 30 mins. The source says: The source of the bioluminescence background emission in bioluminogenic pro-luciferin probes was investigated. In addition to trace amounts of free D-luciferin in the sample, pro-luciferin probes can be oxidized by luciferases due to the promiscuity of the enzyme […]. […] By combining BRET quenching and chemical caging, an ultrasensitive bioluminescent probe D-Bluco was developed that could detect as low as 10-18 moles of β-lactamase activity.

In data set [6] the test system is E. coli/TEM. As to the kind of experiment: Inhibitor test with E. coli/TEM and D-Bluco. The conditions noted are these: D-Bluco 10 μM, no inhibitor.
In data set [7] the target is T1, TEM-1. As to the kind of experiment: Fluorescence turn-on of caged luciferin probes with recombinant TEM-1 bla. It counts as biochemical. Details: made in house. The method, then: D-Bluco was evaluated as to whether it could be processed by β-lactamase to release luciferin with one of the most prevalent Ambler class A β-lactamases, TEM-1.
Both probes were evaluated to with TEM-1 bla, one of the most abundant β-Lactamases for initial testing. The fluorescent signal of D-Bluco and O-Bluco incubated with 100 nM TEM-1 bla was examined with a microplate reader over a period of 40 minutes.
General information: All chemicals were purchased from commercial sources and used without further purification. […] QuantiLum Recombinant luciferase (catalog number E1701) was purchased from Promega (Madison, WI). Reaction progress was monitored by analytical thin layer chromatography (TLC) with 0.25 mm silica gel 60F plates and visualized with fluorescent indicator (254 nm). Flash column chromatography was conducted using silica gel (SiliaFlash for flash column, 40-63 μm, 60 Å). The ^1H and ^13C NMR spectra were acquired on a Varian 500 MHz or 600 MHz magnetic resonance spectrometer. Data for ^1H NMR spectra are reported as follows: chemical shifts are reported as δ in units of parts per million (ppm) relative to chloroform-d (δ 7.26, s); multiplicities are reported as follows: s (singlet), d (doublet), t (triplet), q (quartet), dd (doublet of doublets), m (multiplet), or br (broadened); coupling constants are reported as a J value in Hertz (Hz); and the number of protons (n) for a given resonance is indicated nH and based on the spectral integration values. High resolution mass spectra were obtained on a Thermo Exactive Orbitrap LC/MS. HPLC was performed on a Dionex HPLC System (Dionex Corporation) equipped with a GP50 gradient pump and an inline diode array UV-Vis detector. A reversed-phase C18 (Phenomenax, 5 μm, 10×250 mm or Dionex, 5 μm, 4.6×250 mm) column was used with a MeCN (B)/H2O (A) gradient mobile phase containing 0.1% trifluoroacetic acid at a flow of 1 or 3 mL/min for the analysis. Fluorescence Spectra and kinetic experiments were collected by a SpectraMax iD3 multimode microplate reader (Molecular Device, San Jose, CA).

Data set [8] has as its system K. pneumoniae/KPC. Kind of data set: RAPID BLI test, clinic isolate spiked into synthetic urine, K. pneumoniae/KPC. The conditions noted are these: K. pneumoniae/KPC in synthetic urine, D-Bluco 10 μM.
Procedure: The modified rapid BLI protocol is applied. The signal of D-Bluco in PBS was subtracted before plotting. The working concentration of D-Bluco was 10 μM. All the studies were duplicated at room temperature in PBS (pH=7.4). Statistical significance was calculated using the unpaired two-tailed Student's t test (** p<0.0021, *** p<0.0002, **** p<0.0001, for comparison with 10^5 cfu/mL E. coli) (** p<0.0021, **** p<0.0001, ns: not significant). RLU indicates relative light units. Dotted line represents 3SD of the negative control.
Bacteria was mixed with 0.5% CHAPS lysis buffer for 15 min, and then incubated with D-Bluco at room temperature for another 15 min. The resulted mixture was combined with assay buffer which contains MgCl2, CoA, ATP, and luciferase for immediate bioluminescent reading.
Clinic isolates representing different classes (class A: Enterobacter cloacae/IMI, E. coli/TEM, K. pneumoniae/KPC; class B: E. coli/NDM, and class C: E. cloacae/AmpC) were spiked into synthetic urine samples.
Data set [9] is described as follows: Stability of probe incubated with E. coli or PBS. Conditions: incubated with Escherichia coli or PBS.
Data set [10] deals with T4, BlaC (Mycobacterium tuberculosis, UniProt P9WKD3).
T4 construct: made in house
T4 sequence (P9WKD3 35-307): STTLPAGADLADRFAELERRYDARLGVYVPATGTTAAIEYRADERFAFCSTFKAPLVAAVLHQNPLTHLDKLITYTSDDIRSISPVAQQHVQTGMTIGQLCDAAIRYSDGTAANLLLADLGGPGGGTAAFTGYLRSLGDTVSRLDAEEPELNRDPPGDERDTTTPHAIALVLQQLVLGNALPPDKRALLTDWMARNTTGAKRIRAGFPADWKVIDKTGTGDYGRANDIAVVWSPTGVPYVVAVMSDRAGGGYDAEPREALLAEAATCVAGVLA
As to the kind of experiment: Limit of detection of recombinant β-lactamase by bioluminescence (BlaC). It counts as biochemical. Conditions: 2 hours, room temperature; 3 SD of negative control.

Data set [11] addresses KPC-3 (Klebsiella pneumoniae, UniProt Q9F663, H272Y). Kind of data set: Limit of detection of recombinant β-lactamase by bioluminescence (KPC-3). It counts as biochemical. Conditions: 2 hours, room temperature; 3 SD of negative control.
Data set [12] has as its target T1, TEM-1. The class given is biochemical. Details: made in house. Conditions: 10 μM probe. The method, then: RLU indicates relative light units.
FIGS. 9A and 9B illustrates bioluminescent studies of D-Bluco and O-Bluco treating with various β-lactamases. 10 μM of Bluco, D-Bluco and O-Bluco incubated with 20 nM TEM-1 for 15 min in PBS at r.t. The bioluminescent signals for each compound was evaluated with or without the addition of TEM-1 by a luminator. […] The relative bioluminescent was calculated by removing background signal in PBS.
The bioluminescence emission from the released D-luciferin was measured. […] Also evaluated was whether there was interference between luciferase and β-lactamases in such dual enzyme reaction system.
The signal to background ratio for D-Bluco, O-Bluco, and Bluco was measured following the addition of the firefly luciferase (fLuc).
The caged luciferin probes were incubated with different concentrations of TEM-1 β-lactamase or IMP-1 carbapenemase (0.001-0.1 fmol) in PBS (pH=7.4) for 2 hr at 25° C. Then a mixture of luciferase (200 nM), ATP (2 mM), and MgCl2 (4 mM) was added, and bioluminescent signals were detected with a SpectraMax microplate reader or a luminator.

KPC-3, sequence (Q9F663 25-293 H272Y): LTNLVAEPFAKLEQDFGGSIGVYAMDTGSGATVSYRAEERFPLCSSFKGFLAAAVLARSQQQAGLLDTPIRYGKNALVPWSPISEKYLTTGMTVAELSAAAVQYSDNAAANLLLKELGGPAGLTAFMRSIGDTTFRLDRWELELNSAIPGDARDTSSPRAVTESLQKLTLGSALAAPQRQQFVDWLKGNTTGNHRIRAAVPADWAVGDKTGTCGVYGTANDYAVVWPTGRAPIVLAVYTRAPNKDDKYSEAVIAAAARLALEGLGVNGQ

Take `CN(C)c1ccc(/N=N/c2ccc(C(=O)NCCCCCC(=O)NC3C(=O)N4C(C(=O)O)=C(COc5ccc6nc(C7=N[C@@H](C(=O)O)CS7)sc6c5)C[S+]([O-])C34)cc2)cc1` (stereo partly drawn) [D-Bluco, 3-(((2-((S)-4-carboxy-4,5-dihydrothiazol-2-yl)benzo[d]thiazol-6-yl)oxy)methyl)-7-(6-(4-((E)-(4-(dimethylamino)phenyl)diazenyl)benzamido)hexanamido)-8-oxo-5-thia-1-azabicyclo[4.2.0]oct-2-ene-2-carboxylic acid 5-oxide]: in data set [1], the “limit of detection (LOD) of AmpC” value was 0.1 femtomole. Also, the “limit of detection (LOD) of TEM-1 (all other β-lactamases)” value in data set [2] stood at 0.001 femtomole. Further, in data set [3] (incubated with firefly luciferase), the “oxidation of probe incubated with firefly luciferase (mass spectrometry)” value is “oxidized”. For the same molecule, the “bioluminescence emission on additional batches of firefly luciferase” value in data set [3] (repeated firefly luciferase addition, no β-lactamase) is on record as “no further bioluminescence emission was detected”. Also, the “efficiency of OXA-48 in hydrolyzing the probe” value in data set [4] was “low efficiency”. Moreover, the “limit of detection (LOD) of OXA-48” value in [4] (2 hours, room temperature, 3 SD of negative control (D-Bluco in PBS)) is reported as 0.1 femtomole. Besides, the “sensitivity of RAPID BLI assay for clinical isolates in urine samples” value in data set [5] is on record as 10^2-10^3 cfu/mL. Also, the “increase of bioluminescent intensity of E. coli/TEM-1 treated with probe over PBS” value in data set [6] is 260 fold. The “fold increase in fluorescence emission in the presence of TEM-1” value in data set [7] (1 μM probe, TEM-1 100 nM, 40 min, PBS pH 7.4, r.t., excitation 330 nm, emission 530 nm) came to 37.6 fold. Also, the “time of rapid fluorescence intensity increase before plateau” value in [7] (TEM-1 bla 100 nM, monitored over 40 minutes) is ≤ 10 min. The “fluorescence emission in the absence of TEM-1” value in data set [7] (without TEM-1, excitation 330 nm, emission 530 nm) is given as “little emission”. Besides, in [8], the “concentration detected directly without culture” value is 10^3 cfu/mL. Further, the “stability when incubated with E. coli or PBS” value in [9] is “highly stable”. The “limit of detection (LOD) of BlaC (all other β-lactamases)” value in data set [10] was 0.001 femtomole. Also, in [11], the “limit of detection (LOD) of KPC-3 (all other β-lactamases)” value is given as 0.001 femtomole. Moreover, the “fold increase in bioluminescence emission upon TEM-1 treatment (turn-on ratio, signal with TEM-1 over signal without TEM-1)” value in data set [12] (TEM-1 20 nM, 15 min, PBS pH 7.4, r.t.) is given as 1420 fold. Moreover, the “initial bioluminescent background signal without TEM-1” value in [12] (without TEM-1) was “significantly lower than that of Bluco; also recorded: lowest background signal”.
